# Results reported in patent US20050209295A1, “Methimazole derivatives and tautomeric cyclic thiones to inhibit cell adhesion” (priority 2004, published 2005).
# Columns and labels:
# Format in all cases: cell-based, human
# VCAM-1 = assay: TNF-alpha-induced VCAM-1 RNA levels in aortic endothelial cells (Northern blot); conditions: for % INHIBITION of TNF-alpha-induced VCAM-1 RNA levels: aortic endothelial cells, mean ± SD
# Protocol: Cell culture and treatment of HAEC: Human aortic endothelial cells (HAEC; Cambrex Bio Science Walkersville, Inc., Walkersville, Md.) are cultured in M199 supplemented with 8% FBS, 100 μg/ml heparin, 10 ng/ml endothelial growth factor, 100 μg/ml hypothalamus extract, 2 mM L-glutamine, 1% non-essential amino acids, 100 units/ml penicillin and 100 μg/ml streptomycin. HAEC are subcultured on gelatin pre-coated: 96-well tissue culture plates (Corning Incorporated; Corning, N.Y.) for viability assays and ELISA; 100-mm tissue culture dishes (BD Falcon; Franklin Lakes, N.J.) for Northern blot analyses, Western blot analyses and EMSA; 35-mm tissue culture dishes (Corning) for adhesion assays and on 24-well tissue culture plates for luciferase promoter assays (BD Falcon). All experiments are performed with confluent HAEC monolayers. Unless noted otherwise, HAEC are treated with 25 ng/ml TNF-α, in the absence or presence of C-10 or 0.25% DMSO (carrier control for C-10), for 2-24 hrs. The concentration of DMSO is held constant at 0.25% (unless indicated otherwise) for all of the C-10 conditions.
# HAEC are washed with PBS and total RNA extracted using a commercial kit (RNeasy Mini Kit; Qiagen Inc.; Valencia, Calif.). 12 μg of total RNA per lane is resolved on 1% denaturing agarose gels containing 0.66M formaldehyde. Gels are capillary blotted on Nytran membranes (Schleicher and Schuell Inc.; Keene, N.H.), UV cross-linked, and used for hybridization. The probe for IRF-1 has been previously described (33). The G3PDH cDNA is from Clontech (Palo Alto, Calif.). […]; cDNAs are labeled with α-^32P-dCTP using the Ladderman Labeling Kit (Takara Biochemical Inc.; Berkeley, Calif.) (33). Northern blots are developed using a BAS 1500 Bioimaging Analyzer (Fuji Photo Film Co., Ltd. Medical Systems USA Inc.; Stanford, Calif.). Each experiment is replicated at least twice.
# NF-κB = assay: EMSA of TNF-α induced NF-κB binding activity to VCAM-1 promoter; conditions: 0.5 mM; 2 hr. TNF-α; HAEC nuclear extract
# Protocol: (§1) Nuclear Extracts and EMSA: Nuclear extracts are prepared from harvested HAEC using NE-PER® extraction reagents (Pierce Chemical Co.; Rockford, Ill.) in the presence of a protease inhibitor cocktail (PMSF, Leupeptin, Pepstatin-A). Oligonucleotides (Biosynthesis Inc.; Lewisville, Tex.) are annealed and precipitated double stranded oligonucleotides end labeled with γ-^32P-ATP using T4 polynucleotide kinase enzyme. Binding reactions (20 min., room temperature) included ^32P-labeled probe (activity 100,000 cpm), 3-6 μg HAEC nuclear extract, 1 μg poly(dI-dC), 1 mM DTT, 10% glycerol and 1× binding buffer. Binding buffer (10×) for NF-κB EMSA is 200 mM HEPES-KOH (pH7.9), 340 mM KCl, 50 mM MgCl2, 5 mM EDTA (pH 8.0), 1% Triton X-100. Binding buffer (10×) for IRF-1 EMSA is 100 mM Tris-HCL (pH 7.5), 500 mM NaCl, 50 mM MgCl2, 10 mM EDTA (pH 8.0). In competition studies, nuclear extracts are incubated with 100 fold molar excess of unlabeled double stranded oligonucleotide. In supershift studies, nuclear extracts are incubated with 2 μg of appropriate antibodies. After the incubations, reaction mixtures are electrophoresed (160V, room temperature) on 5% non-denaturing polyacrylamide gels containing 5% glycerol in 1×TBE (50 mM Tris, 50 mM boric acid, and 1 mM EDTA). Gels are dried and autoradiographed. Each experiment is replicated at least twice. […]
# IRF-1 = assay: EMSA of TNF-α induced IRF-1 binding activity to VCAM-1 promoter; conditions: 0.5 mM and 1 mM; 2 hr. TNF-α; HAEC nuclear extract
# Protocol: as §1
structure (smiles),measurement,setting,value
Cn1c(-c2ccccc2)cnc1S [5-Phenylmethimazole],% INHIBITION of TNF-alpha-induced VCAM-1 RNA levels,VCAM-1; 5.0 mM,99 ± 3%
same,% INHIBITION of TNF-alpha-induced VCAM-1 RNA levels,VCAM-1; 10 :M,75 ± 7%
same,% INHIBITION of TNF-alpha-induced VCAM-1 RNA levels,VCAM-1; 100 :M,99 ± 4%
same,effect on TNF-α induced VCAM-1 mRNA expression,"VCAM-1; 2 hr. TNF-α, HAEC, Northern blot","reduced, in a dose-dependent manner"
same,effect on TNF-α induced VCAM-1 mRNA,"VCAM-1; 24 hr. TNF-α, HAEC, Northern blot","reduced, in a dose dependent manner"
same,effect on TNF-α dependent NF-κB complex formation (EMSA),NF-κB,no effect
same,effect on formation of TNF-α induced IRF-1 complex (EMSA),IRF-1,inhibits
